Measurements: patent EP4137133A1, “CRYSTALLINE FORM OF AVACOPAN” (Sandoz AG, priority 2021, dated 2023)
Values belong to the compound of their own block, whether it stands above or below them.

How the values were obtained:
[1] = Powder dissolution of crystalline avacopan forms in 0.1N HCl; assay type: physicochemical; details: 37°C; for Concentration: HPLC 243 nm
Procedure: Powder dissolution experiments were carried out in 0.1N HCl at 37°C for the crystalline form of avacopan disclosed in WO 2021/092292 A1 and the crystalline Form HyA of avacopan of the present invention. Particle sizes of the forms were kept as similar as possible to allow for proper comparison. The respective concentrations were determined by HPLC at a wavelength of 243 nm.

[2] = Gravimetric moisture sorption (GMS); assay type: physicochemical; details: 25 ± 0.1 °C
Procedure: Moisture sorption isotherms were recorded with an SPSx-1µ moisture sorption analyzer (ProUmid, Ulm) together with other samples. The measurement cycle was started at ambient relative humidity (RH) of 40%. RH was then decreased to 5% in 5% steps, followed by a further decrease to 3% and to 0%. […] Finally, RH was increased to ambient relative humidity of […] in 5% steps. The time per step was set to a minimum of 2 hours and a maximum of 6 hours. If an equilibrium condition with a constant mass of ± 0.01% within 1 hour was reached before the maximum time for all examined samples the sequential humidity step was applied before the maximum time of 6 hours. If no equilibrium was achieved the consecutive humidity step was applied after the maximum time of 6 hours. The temperature was 25 ± 0.1 °C.

Concentration ([1]; time 0.25 h): 4 µg/mL
Concentration ([1]; time 0.5 h): 6 µg/mL
Concentration ([1]; time 0.75 h): 6 µg/mL
Concentration ([1]; time 1 h): 7 µg/mL
Concentration ([1]; time 1.25 h): 7 µg/mL
Concentration ([1]; time 1.5 h): 8 µg/mL
Concentration ([1]; time 1.75 h): 8 µg/mL
Concentration ([1]; time 2 h): 8 µg/mL
SMILES: Cc1ccc(NC(=O)[C@H]2CCCN(C(=O)c3c(C)cccc3F)[C@H]2c2ccc(NC3CCCC3)cc2)cc1C(F)(F)F [Crystalline Form of WO 2021/092292 A1, (2R,3S)-2-(4-(cyclopentylamino)phenyl)-1-(2-fluoro-6-methylbenzoyl)-N-(4-methyl-3-(trifluoromethyl)phenyl)piperidine-3-carboxamide, reference compound]

Concentration ([1]; time 0 h): 0 µg/mL
Concentration ([1]; time 0.25 h, listed as Form HyA of present invention): 72 µg/mL
Concentration ([1]; time 0.5 h, listed as Form HyA of present invention): 68 µg/mL
Concentration ([1]; time 0.75 h, listed as Form HyA of present invention): 60 µg/mL
Concentration ([1]; time 1 h, listed as Form HyA of present invention): 52 µg/mL
Concentration ([1]; time 1.25 h, listed as Form HyA of present invention): 43 µg/mL
Concentration ([1]; time 1.5 h, listed as Form HyA of present invention): 40 µg/mL
Concentration ([1]; time 1.75 h, listed as Form HyA of present invention): 36 µg/mL
Concentration ([1]; time 2 h, listed as Form HyA of present invention): 35 µg/mL
solubility in 0.1N HCl compared to the crystalline form of avacopan disclosed in WO 2021/092292 A1 ([1]; whole range from 15 minutes to 2 hours): significantly increased solubility
mass change (0-15% RH) ([2]; GMS, 0-15% RH): 2.2 w-%
mass change (0-90%RH) ([2]; GMS, 0-90% RH): 3.2 w-%
mass change (15-90%) ([2]; GMS, 15-90% RH): 1.0 w-%
hygroscopicity ([2]; GMS, range of 15-90% RH): slightly hygroscopic
mass change ([2]; GMS, range of 15-90% RH): 1.0%
water released ([2]; GMS, very dry conditions, below 15-0% RH): 2.2%
PXRD after the GMS experiment (physical stability) ([2]; after sorption/desorption cycles 0-90% RH): still shows the same PXRD
SMILES: Cc1ccc(NC(=O)[C@H]2CCCN(C(=O)c3c(C)cccc3F)[C@H]2c2ccc(NC3CCCC3)cc2)cc1C(F)(F)F [Form HyA, (2R,3S)-2-(4-(cyclopentylamino)phenyl)-1-(2-fluoro-6-methylbenzoyl)-N-(4-methyl-3-(trifluoromethyl)phenyl)piperidine-3-carboxamide]
